Consider 22 compounds from PubChem BioAssay AID330 (DTP/NCI, 2004).

Where “and” joins values, the source holds several entries; their conditions need not be identical. Equal entries are not always repeated. Toxic doses and inconclusive results are not listed. Square brackets hold non-standard residues; d marks the D form. Peptide text beside a SMILES is read from it. * marks the point of attachment. ξ: configuration not given here. Cbz = O=C(OCc1ccccc1)*; ξNle = CCCCC(N)C(=O)O

The test system of the test is P388 leukemia ip, CD2F1 mice, survival T/C. Description: NCI In Vivo Anticancer Drug Screen. Data for tumor model P388 Leukemia (intraperitoneal) in CD2F1 (CDF1) mice. The note with it: endpoint: median survival time, higher = longer survival. An outline of the steps:
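Mice carrying the transplanted tumor received test compound or vehicle. Survival was recorded in each group, and the value is the treated-group measurement divided by that of the vehicle-treated control group.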

Setting [1] is: dose: 60.0 mg/kg/injection, schedule: Q01DX005 (ip), vehicle: saline with Tween-80.
The mark [2] stands for this setting: dose: 120.0 mg/kg/injection, schedule: Q01DX005 (ip), vehicle: saline with Tween-80.
[3] abbreviates: dose: 240.0 mg/kg/injection, schedule: Q01DX005 (ip), vehicle: saline with Tween-80.
Setting [4] is: dose: 12.5 mg/kg/injection, schedule: Q01DX009 (ip), vehicle: saline with Tween-80.
Setting [5] is: dose: 25.0 mg/kg/injection, schedule: Q01DX009 (ip), vehicle: saline with Tween-80.
[6] abbreviates: dose: 50.0 mg/kg/injection, schedule: Q01DX009 (ip), vehicle: saline with Tween-80.
[7] abbreviates: dose: 50.0 mg/kg/injection, schedule: Q01DX005 (ip), vehicle: saline with Tween-80.
Where [8] appears, read: dose: 100.0 mg/kg/injection, schedule: Q01DX005 (ip), vehicle: saline with Tween-80.
Where [9] appears, read: dose: 200.0 mg/kg/injection, schedule: Q01DX005 (ip), vehicle: saline with Tween-80.
[10] abbreviates: dose: 15.0 mg/kg/injection, schedule: Q01DX005 (ip), vehicle: saline with Tween-80.
The mark [11] stands for this setting: dose: 60.0 mg/kg/injection, schedule: Q01DX005 (ip), vehicle: saline.
[12] abbreviates: dose: 120.0 mg/kg/injection, schedule: Q01DX005 (ip), vehicle: saline.
Setting [13] is: dose: 240.0 mg/kg/injection, schedule: Q01DX005 (ip), vehicle: saline.

Take `CCOC(=O)c1ccc(NC(=S)Nc2ccc(C(=O)OCC)cc2)cc1`: the T/C reads like this: (dose: 100.0 mg/kg/injection, schedule: Q01DX009 (ip), vehicle: saline with Tween-80) 90 % of control; (dose: 200.0 mg/kg/injection, schedule: Q01DX009 (ip), vehicle: saline with Tween-80) 90 % of control; (dose: 400.0 mg/kg/injection, schedule: Q01DX009 (ip), vehicle: saline with Tween-80) 90 % of control.

With `Cc1ccc(S(=O)(=O)N/N=C/c2c(C)nc3n2CCS3)cc1`, the T/C is, setting by setting: (dose: 100.0 mg/kg/injection, schedule: Q01DX001 (ip), vehicle: Klucel (hydroxypropylcellulose) (HPC)) 101 % of control; (dose: 200.0 mg/kg/injection, schedule: Q01DX001 (ip), vehicle: Klucel (hydroxypropylcellulose) (HPC)) 102 % of control; (dose: 400.0 mg/kg/injection, schedule: Q01DX001 (ip), vehicle: Klucel (hydroxypropylcellulose) (HPC)) 102 % of control.

On to `O=C(c1ccccc1)c1cc(Cl)ccc1NCC(O)COc1cccc2ccccc12` (stereo not given), for which the T/C by setting is: under setting [1], 100 % of control; under setting [2], 91 % of control; under setting [3], 88 % of control.

`COC1/C=C/OC2(C)Oc3c(C)c(O)c4c(O)c(c(/C=N/N5C(C)CN(Cc6cccc(C#N)c6)CC5C)c(O)c4c3C2=O)NC(=O)/C(C)=C\C=C\C(C)C(O)C(C)C(O)C(C)C(OC(C)=O)C1C` (stereo not given): the T/C is, setting by setting: under setting [4], 110 % of control; under setting [5], 109 % of control; under setting [6], 109 % of control and 118 % of control.

`Fc1ccc(-c2nc3ccccn3c2N=Nc2ccccc2)cc1`: the T/C under setting [7] was 88 % of control, the T/C under setting [8] was 97 % of control and the T/C under setting [9] was 94 % of control.

As to `Cc1ccc2c(c1)C(=Nc1ccc(Cl)cc1)C(=O)N2`, the T/C runs as follows: (dose: 0.93 mg/kg/injection, schedule: Q01DX005 (ip), vehicle: saline with Tween-80) 101 % of control; (dose: 1.87 mg/kg/injection, schedule: Q01DX005 (ip), vehicle: saline with Tween-80) 93 % of control; (dose: 3.75 mg/kg/injection, schedule: Q01DX005 (ip), vehicle: saline with Tween-80) 87 % of control; under setting [10], 87 % of control; under setting [1], 99 % of control; under setting [2], 87 % of control. For the same compound, the T/C under setting [3] is 95 % of control.

`BrCc1cn2ccccc2n1`: the T/C runs as follows: (dose: 25.0 mg/kg/injection, schedule: Q01DX009 (ip), vehicle: saline) 92 % of control; (dose: 50.0 mg/kg/injection, schedule: Q01DX009 (ip), vehicle: saline) 100 % of control; (dose: 100.0 mg/kg/injection, schedule: Q01DX009 (ip), vehicle: saline) 104 % of control.

Regarding `CCN(CC)C(=S)S`, the T/C was 95 % of control (dose: 100.0 mg/kg/injection, schedule: Q04DX003 (ip), vehicle: saline sonified); 100 % of control (dose: 200.0 mg/kg/injection, schedule: Q04DX003 (ip), vehicle: saline sonified); 90 % of control (dose: 400.0 mg/kg/injection, schedule: Q04DX003 (ip), vehicle: saline sonified).

Take `NC(=O)N/N=C1\CCn2cccc21`: the T/C under setting [1] was 92 % of control and the T/C under setting [2] was 95 % of control.

Turning to `COc1cc2c(cc1OC)C13CC[N+]4([O-])CC5=CCOC6CC(=O)N2C1C6C5CC34` (stereo not given), the T/C is, setting by setting: (dose: 15.0 mg/kg/injection, schedule: Q01DX005 (ip), vehicle: saline) 107 % of control; (dose: 30.0 mg/kg/injection, schedule: Q01DX005 (ip), vehicle: saline) 108 % of control; under setting [11], 106 % of control and 107 % of control; under setting [12], 100 % of control; under setting [13], 97 % of control.

In the case of `CCCCOCN(CCCc1ccccc1)COCCCC`, the T/C is 89 % of control under setting [4], 102 % of control under setting [5] and 118 % of control under setting [6].

Regarding `FC(F)(F)C1(C(F)(F)F)OI(Cl)c2ccccc21`, the T/C runs as follows: (dose: 12.5 mg/kg/injection, schedule: Q04DX002 (ip), vehicle: Klucel (hydroxypropylcellulose) (HPC)) 99 % of control; (dose: 25.0 mg/kg/injection, schedule: Q04DX002 (ip), vehicle: Klucel (hydroxypropylcellulose) (HPC)) 99 % of control; (dose: 50.0 mg/kg/injection, schedule: Q04DX002 (ip), vehicle: Klucel (hydroxypropylcellulose) (HPC)) 98 % of control.

Take `O=c1c2cccnc2oc2c(Cl)cc(-c3nn[nH]n3)cc12`: the T/C runs as follows: (dose: 50.0 mg/kg/injection, schedule: Q01DX005 (ip), vehicle: Klucel (hydroxypropylcellulose) (HPC)) 97 % of control; (dose: 100.0 mg/kg/injection, schedule: Q01DX005 (ip), vehicle: Klucel (hydroxypropylcellulose) (HPC)) 111 % of control; (dose: 200.0 mg/kg/injection, schedule: Q01DX005 (ip), vehicle: Klucel (hydroxypropylcellulose) (HPC)) 97 % of control.

For the compound `Cc1c2cc3c(cc2cc2c4cc5c(cc4cc[n+]12)OCO5)OCO3` (tested in a mixture with another compound), the T/C runs as follows: (dose: 0.44 mg/kg/injection, schedule: Q04DX003 (ip), vehicle: saline) 122 % of control; (dose: 5.0 mg/kg/injection, schedule: Q04DX003 (ip), vehicle: saline) 154 % of control; (dose: 7.5 mg/kg/injection, schedule: Q04DX003 (ip), vehicle: saline) 150 % of control.

For `CNC(=O)NCc1cccnc1`, the T/C by setting is: under setting [11], 107 % of control; under setting [12], 103 % of control; under setting [13], 99 % of control.

Regarding `c1cc[c]([Sn]([S]C23CC4CC(CC(C4)C2)C3)([c]2ccccc2)[c]2ccccc2)cc1`, the T/C was 94 % of control (dose: 100.0 mg/kg/injection, schedule: Q04DX003 (ip), vehicle: suspension in saline); 98 % of control (dose: 200.0 mg/kg/injection, schedule: Q04DX003 (ip), vehicle: suspension in saline); 93 % of control (dose: 400.0 mg/kg/injection, schedule: Q04DX003 (ip), vehicle: suspension in saline).

With `NS(=O)(=O)c1ccc(NC(=O)Oc2ccc([N+](=O)[O-])cc2)cc1`, the T/C runs as follows: (dose: 100.0 mg/kg/injection, schedule: Q01DX001 (ip), vehicle: saline with Tween-80) 100 % of control; (dose: 200.0 mg/kg/injection, schedule: Q01DX001 (ip), vehicle: saline with Tween-80) 100 % of control; (dose: 400.0 mg/kg/injection, schedule: Q01DX001 (ip), vehicle: saline with Tween-80) 104 % of control.

Regarding `CCN(CC)CCSCCNc1cc(OC)cc2cccnc12`, the T/C by setting is: (dose: 12.5 mg/kg/injection, schedule: Q01DX005 (ip), vehicle: saline) 101 % of control; (dose: 25.0 mg/kg/injection, schedule: Q01DX005 (ip), vehicle: saline) 101 % of control; (dose: 50.0 mg/kg/injection, schedule: Q01DX005 (ip), vehicle: saline) 89 % of control and 97 % of control.

`Nc1cc(C(=O)Nc2ccc(C3=NCCN3)cc2)ccc1C(=O)Nc1ccc(C2=NCCN2)cc1`: the T/C (dose: 20.0 mg/kg/injection, schedule: Q04DX003 (ip), vehicle: saline with Tween-80) was 168 % of control; the T/C (dose: 30.0 mg/kg/injection, schedule: Q04DX003 (ip), vehicle: saline with Tween-80) is 204 % of control; the T/C (dose: 44.0 mg/kg/injection, schedule: Q04DX003 (ip), vehicle: saline with Tween-80) is 277 % of control; the T/C (dose: 66.0 mg/kg/injection, schedule: Q04DX003 (ip), vehicle: saline with Tween-80) was 181 % of control.

Regarding `Cn1nnc(C(=O)O)n1`, the T/C is 100 % of control (dose: 50.0 mg/kg/injection, schedule: Q01DX001 (ip), vehicle: saline); 100 % of control (dose: 100.0 mg/kg/injection, schedule: Q01DX001 (ip), vehicle: saline); 103 % of control (dose: 100.0 mg/kg/injection, schedule: Q04DX003 (ip), vehicle: saline); 101 % of control (dose: 200.0 mg/kg/injection, schedule: Q01DX001 (ip), vehicle: saline); 103 % of control (dose: 200.0 mg/kg/injection, schedule: Q04DX003 (ip), vehicle: saline); 100 % of control (dose: 400.0 mg/kg/injection, schedule: Q04DX003 (ip), vehicle: saline).

Take `COC(=O)NC[Si](C)(C)C`: the T/C was 105 % of control under setting [10]; 106 % of control (dose: 30.0 mg/kg/injection, schedule: Q01DX005 (ip), vehicle: saline with Tween-80); 103 % of control under setting [1].

Turning to `CCCCC(NC(=O)OCc1ccccc1)C(=O)NCC(=O)OC` (stereo not given) (Cbz-[ξNle]-Gly-OMe), the T/C runs as follows: under setting [7], 99 % of control; under setting [8], 100 % of control; under setting [9], 99 % of control.
